# Laboratory results from patent US20050064384A1, “Recruitment of mst1 or mst2 protein kinase to induce apoptosis in eukaryotic cells” (priority 2001, published 2005).
# Entries after “also recorded” stand apart in the source; their conditions may differ. Peptide text beside a SMILES is read from it. * marks the point of attachment. Cbz = O=C(OCc1ccccc1)*; CH2F = FC*
# How the values were obtained:
# Format in all cases: cell-based
# [1] = test system: NIH3T3 cells; test: Annexin V labeling in NIH 3T3 cells (FACS); conditions: zVAD-FMK 42 μM added at the time of transfection; cells harvested 24 hours later; NORECAAX + wild type MST1, or myrMST1
# Experimental: Annexin V labeling in NIH 3T3 cells. The assay was as described in (van Engeland et al., Cytometry, 24: 131-139 (1996)) with some modifications. NIH 3T3 cells were plated at 3-4×10^5 per well in a 6-well plate the day before transfection. Cells were transfected in duplicate with 6 μg of DNA and 10 μl of LIPOFECTAMINE™ 2000 transfection reagent (GIBCO BRL, Gaithersburg, Md.) in the presence of 10% serum, as recommended by manufacturer, and left for 19-23 hours. In some experiments, Z-Vad-FMK (Calbiochem) was added to 42 μM (final concentration) at the time of transfection. Rat annexinV, purified from liver or recombinant, labeled with Alexa 488 dye was added to the culture media to 1 mg/ml and cells were incubated 5 minutes at 37° C., followed by 25 minutes at room temperature in the dark. Media with floating cells was transferred to 5 ml centrifuge tubes on ice; the plates were washed twice with 1 ml of HBS (20 mM HEPES, pH 7.4, 150 mM NaCl, 2.5 mM CaCl2) and the washes were added to the tubes with media. Floating cells were pelleted, resuspended in 3 ml of HBS and pelleted again. Adherent cells were scraped into 1 ml HBS, pooled with floating cells from the same dish and resuspended by vortexing. […] Cells were analyzed by Coulter EPICS V XL flow cytometer; the percent of annexinV-positive cells was calculated by the cytometer software. […]
# [2] = test system: HEK293 cells; test: Apoptosis assay in HEK293 cells (trypan blue exclusion); conditions: incubation with zVAD-FMK, data not shown
# Experimental: Transient transfections were performed using LIPOFECTAMINE™ transfection reagent (Gibco BRL, Gaithersburg, Md.) according to the manufacturer's instructions. […] Each well was transfected with a total of 0.5 μg DNA and 3.5 μl LIPOFECTAMINE™ transfection reagent.
# [3] = test system: Jurkat cells; test: Jurkat cell survival by flow cytometry (GFP positive live cells); conditions: incubation with zVAD-FMK, data not shown
# Experimental: The Jurkat/T antigen cell line was cultured in complete IMDM medium supplemented with 10% FCS, 2 mM glutamine and gentamycin (50 μg/ml) in a humidified incubator with 5% CO2 in air at 37° C. The cells were kept at a density of 0.5-1×10^6/ml. Aliquots containing 3×10^6 Jurkat cells were electorporated at 250 volts and 960 μF with mixtures of plasmids as indicated in the Figures together with 1 μg of cDNA encoding GFP. Twenty-four hours post transfection, cell survival was analyzed by flow cytometry using a previously optimized program to measure percentage of live cells that are GFP positive present in forward scatter/side scatter gate in each experimental condition (Vermes et al., J. Immunol. Meth., 243: 167-190 (2000)). The vital GFP positive cells were selected on the basis of unchanged scatter signals when compared to untransfected cells and the apoptotic cell population with decreased FS and increased SS was excluded from the analysis. The data was expressed as “percent cells surviving” with vector controls set to 100%.
compound,measurement,setting,value
COC(=O)C[C@H](NC(=O)[C@H](C)NC(=O)[C@@H](NC(=O)OCc1ccccc1)C(C)C)C(=O)CF [zVAD-FMK] (Cbz-Val-Ala-Asp(OMe)-CH2F),suppression of NORECAAX and MST1-induced annexin V binding (staining),[1],suppresses; also recorded: fully suppressed
same,suppression of killing caused by low doses of NORECAAX with MST1,[2],suppressed
same,suppression of killing caused by low doses of NORECAAX with MST1,[3],suppressed
